Measured values published in the supplement of paper PMC4862054.

Legend:
Settings in all cases: incubation time: 72 h
[1] = tested on: BT-549; test: normalised response (% of control), CellTox Green; higher = less cell death (100 = DMSO, 0 = benzethonium chloride kill control)
Summary of the method: (§1)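 The table gives the normalised signal for a single concentration in each entry. Breast cancer cell lines were seeded (20 µl suspension) into 384-well plates holding compound at 5 concentrations in 10-fold steps over a compound-specific 10,000-fold range and incubated 72 h, then read for CellTox Green fluorescence (485/520 nm) and CellTiter-Glo luminescence. Normalisation on each plate used 0.1 % DMSO (100) and a positive kill control (0).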

[2] = tested on: CAL-51; test: as above
Summary of the method: as §1

[3] = tested on: MCF-10A; test: as above
Summary of the method: as §1

[4] = tested on: MDA-MB-453; test: as above
Summary of the method: as §1

[5] = tested on: MDA-MB-468; test: as above
Summary of the method: as §1

[6] = tested on: MDA-MB-436; test: as above
Summary of the method: as §1

[7] = tested on: MFM-223; test: as above
Summary of the method: as §1

[8] = tested on: Hs578T; test: as above
Summary of the method: as §1

[9] = tested on: MDA-MB-231; test: as above
Summary of the method: as §1

[10] = tested on: CAL-85-1; test: as above
Summary of the method: as §1

[11] = tested on: CAL-120; test: as above
Summary of the method: as §1

[12] = tested on: HCC1937; test: as above
Summary of the method: as §1

[13] = tested on: BT-474; test: as above
Summary of the method: as §1

[14] = tested on: HCC1599; test: as above
Summary of the method: as §1

[15] = tested on: HCC1143; test: as above
Summary of the method: as §1

[16] = tested on: CAL-148; test: as above
Summary of the method: as §1

[17] = tested on: DU-4475; test: as above
Summary of the method: as §1

[18] = tested on: BT-549; test: normalised response (% of control), CellTiter-Glo; higher = more viable cells (100 = DMSO, 0 = benzethonium chloride kill control)
Summary of the method: as §1

[19] = tested on: SK-BR-3; test: as above
Summary of the method: as §1

[20] = tested on: CAL-51; test: as above
Summary of the method: as §1

[21] = tested on: MCF-10A; test: as above
Summary of the method: as §1

[22] = tested on: MDA-MB-453; test: as above
Summary of the method: as §1

[23] = tested on: MDA-MB-468; test: as above
Summary of the method: as §1

[24] = tested on: MDA-MB-436; test: as above
Summary of the method: as §1

[25] = tested on: HDQ-P1; test: as above
Summary of the method: as §1

[26] = tested on: MFM-223; test: as above
Summary of the method: as §1

[27] = tested on: Hs578T; test: as above
Summary of the method: as §1

[28] = tested on: MDA-MB-231; test: as above
Summary of the method: as §1

[29] = tested on: CAL-85-1; test: as above
Summary of the method: as §1

[30] = tested on: CAL-120; test: as above
Summary of the method: as §1

[31] = tested on: HCC1937; test: as above
Summary of the method: as §1

[32] = tested on: BT-474; test: as above
Summary of the method: as §1

[33] = tested on: HCC1599; test: as above
Summary of the method: as §1

[34] = tested on: HCC1143; test: as above
Summary of the method: as §1

[35] = tested on: CAL-148; test: as above
Summary of the method: as §1

[36] = tested on: DU-4475; test: as above
Summary of the method: as §1

SMILES: CC[C@@H]1C(=O)N(C)c2cnc(Nc3ccc(C(=O)NC4CCN(C)CC4)cc3OC)nc2N1C1CCCC1 [BI 2536] (100 nM)
- normalised response [1]: 93%
- normalised response [2]: 49.6%
- normalised response [3]: 36.6%
- normalised response [4]: 103%
- normalised response [5]: 73.3%
- normalised response [6]: 82.5%
- normalised response [7]: 70.5%
- normalised response [8]: 82%
- normalised response [9]: 24.3%
- normalised response [10]: 71.5%
- normalised response [11]: 87.1%
- normalised response [12]: 113%
- normalised response [13]: 100%
- normalised response [14]: 91.7%
- normalised response [15]: 79.2%
- normalised response [16]: 97.7%
- normalised response [17]: 98.5%
- normalised response [18]: 23.6%
- normalised response [19]: 17.6%
- normalised response [20]: 21.9%
- normalised response [21]: 60.3%
- normalised response [22]: 86.5%
- normalised response [23]: 47.9%
- normalised response [24]: 53.1%
- normalised response [25]: 84%
- normalised response [26]: 49.1%
- normalised response [27]: 38.8%
- normalised response [28]: 51%
- normalised response [29]: 81.7%
- normalised response [30]: 63.4%
- normalised response [31]: 86.7%
- normalised response [32]: 55.9%
- normalised response [33]: 37.9%
- normalised response [34]: 47.5%
- normalised response [35]: 68.1%
- normalised response [36]: 63.3%

SMILES: COc1cc2c(Oc3ccc4[nH]c(C)cc4c3F)ncnc2cc1OCCCN1CCCC1 [Cediranib] (100 nM)
- normalised response [1]: 126%
- normalised response [2]: 109%
- normalised response [3]: 98.1%
- normalised response [4]: 105%
- normalised response [5]: 98.6%
- normalised response [6]: 90.2%
- normalised response [7]: 84.1%
- normalised response [8]: 97.6%
- normalised response [9]: 113%
- normalised response [10]: 91.2%
- normalised response [11]: 96.8%
- normalised response [12]: 123%
- normalised response [13]: 104%
- normalised response [14]: 102%
- normalised response [15]: 112%
- normalised response [16]: 106%
- normalised response [17]: 98.4%
- normalised response [18]: 108%
- normalised response [19]: 103%
- normalised response [20]: 107%
- normalised response [21]: 95.4%
- normalised response [22]: 102%
- normalised response [23]: 111%
- normalised response [24]: 106%
- normalised response [25]: 102%
- normalised response [26]: 97.9%
- normalised response [27]: 104%
- normalised response [28]: 103%
- normalised response [29]: 100%
- normalised response [30]: 103%
- normalised response [31]: 98.1%
- normalised response [32]: 104%
- normalised response [33]: 98%
- normalised response [34]: 97.3%
- normalised response [35]: 103%
- normalised response [36]: 97.3%

SMILES: COc1cc2c(NC3CCN(C(C)C)CC3)nc(C3CCCCC3)nc2cc1OCCCN1CCCC1 [UNC0638] (1000 nM)
- normalised response [1]: 81.2%
- normalised response [2]: 78.5%
- normalised response [3]: 104%
- normalised response [4]: 95.8%
- normalised response [5]: 143%
- normalised response [6]: 92.5%
- normalised response [7]: 95.7%
- normalised response [8]: 92.6%
- normalised response [9]: 81.7%
- normalised response [10]: 94.4%
- normalised response [11]: 100%
- normalised response [12]: 92.1%
- normalised response [13]: 91.6%
- normalised response [14]: 89.1%
- normalised response [16]: 93%
- normalised response [17]: 91.6%
- normalised response [18]: 91.6%
- normalised response [19]: 84.6%
- normalised response [20]: 71.4%
- normalised response [21]: 76.7%
- normalised response [22]: 90.6%
- normalised response [23]: 78.8%
- normalised response [24]: 91.3%
- normalised response [25]: 95.6%
- normalised response [26]: 83.6%
- normalised response [27]: 103%
- normalised response [28]: 92%
- normalised response [29]: 106%
- normalised response [30]: 92.8%
- normalised response [31]: 89.9%
- normalised response [32]: 92.4%
- normalised response [33]: 82.1%
- normalised response [34]: 93.3%
- normalised response [35]: 88.9%
- normalised response [36]: 92.1%

SMILES: CCc1cncnc1N1CCN(Cc2nc3ccc(C(F)(F)F)cc3[nH]2)CC1 (1000 nM)
- normalised response [1]: 109%
- normalised response [2]: 97%
- normalised response [3]: 111%
- normalised response [4]: 94.2%
- normalised response [5]: 114%
- normalised response [6]: 84.2%
- normalised response [7]: 101%
- normalised response [8]: 100%
- normalised response [9]: 98.9%
- normalised response [10]: 106%
- normalised response [11]: 98.6%
- normalised response [12]: 111%
- normalised response [13]: 102%
- normalised response [14]: 97.5%
- normalised response [15]: 79.2%
- normalised response [16]: 100%
- normalised response [17]: 104%
- normalised response [18]: 83.6%
- normalised response [19]: 112%
- normalised response [20]: 67%
- normalised response [21]: 103%
- normalised response [22]: 94.8%
- normalised response [23]: 90.3%
- normalised response [24]: 106%
- normalised response [25]: 103%
- normalised response [26]: 106%
- normalised response [27]: 98.5%
- normalised response [28]: 99.4%
- normalised response [29]: 97.7%
- normalised response [30]: 98.1%
- normalised response [31]: 91.1%
- normalised response [32]: 96.7%
- normalised response [33]: 98.8%
- normalised response [34]: 102%
- normalised response [35]: 103%
- normalised response [36]: 93.4%

SMILES: O=C(O)CCCCC(CCSCc1ccccc1)SCc1ccccc1 (stereo not given) [CPI-613] (1000 nM)
- normalised response [1]: 92.6%
- normalised response [2]: 111%
- normalised response [3]: 92.8%
- normalised response [4]: 103%
- normalised response [5]: 114%
- normalised response [6]: 81.4%
- normalised response [7]: 98.7%
- normalised response [8]: 103%
- normalised response [9]: 109%
- normalised response [10]: 96.8%
- normalised response [11]: 102%
- normalised response [12]: 117%
- normalised response [13]: 98.6%
- normalised response [14]: 95.5%
- normalised response [15]: 58.7%
- normalised response [16]: 94.6%
- normalised response [17]: 100%
- normalised response [18]: 102%
- normalised response [19]: 100%
- normalised response [20]: 114%
- normalised response [21]: 103%
- normalised response [22]: 103%
- normalised response [23]: 108%
- normalised response [24]: 99.5%
- normalised response [25]: 102%
- normalised response [26]: 108%
- normalised response [27]: 106%
- normalised response [28]: 102%
- normalised response [29]: 97.1%
- normalised response [30]: 98.1%
- normalised response [31]: 101%
- normalised response [32]: 98.5%
- normalised response [33]: 108%
- normalised response [34]: 102%
- normalised response [35]: 100%
- normalised response [36]: 99.1%

SMILES: Nc1ncn([C@H]2C[C@H](O)[C@@H](CO)O2)c(=O)n1 [Decitabine] (1000 nM)
- normalised response [1]: 116%
- normalised response [2]: 77.8%
- normalised response [3]: 78.9%
- normalised response [4]: 84.1%
- normalised response [5]: 115%
- normalised response [6]: 100%
- normalised response [7]: 93.6%
- normalised response [8]: 112%
- normalised response [9]: 121%
- normalised response [10]: 89.9%
- normalised response [11]: 93.6%
- normalised response [12]: 110%
- normalised response [13]: 98.6%
- normalised response [14]: 101%
- normalised response [15]: 80.5%
- normalised response [16]: 103%
- normalised response [17]: 97.4%
- normalised response [18]: 77.8%
- normalised response [19]: 85.5%
- normalised response [20]: 83.6%
- normalised response [21]: 93.5%
- normalised response [22]: 112%
- normalised response [23]: 26.2%
- normalised response [24]: 97.3%
- normalised response [25]: 93.2%
- normalised response [26]: 96.5%
- normalised response [27]: 93%
- normalised response [28]: 98.4%
- normalised response [29]: 105%
- normalised response [30]: 91.7%
- normalised response [31]: 87.9%
- normalised response [32]: 90.3%
- normalised response [33]: 103%
- normalised response [34]: 90.4%
- normalised response [35]: 83.5%
- normalised response [36]: 90.1%
